According to patent US5041447A, “Oxetanocin-related compounds and pharmaceutical compositions containing them” (priority 1988, dated 1991):
In brackets after ≈: the same amount, converted by molar mass.

Tests used:
[1] = tested on: HIV (human immunodeficiency virus); experiment: Anti-HIV activity: development of virus antigen in HIV-infected MT-4 cells (indirect fluorescent antibody method); format: cell-based; details: 4 days, DMSO only 80 to 90%
Description: Anti-HIV (human immunodeficiency virus) activity
MT-4 cell (about 100,000 cells/ml) was added into a 24 well tray, and then 100 microliters of a solution containing a predetermined quantity of a compound of this invention was added. After culturing it at 37° C. for 5 hours in 5% (v/v) carbon dioxide incubator, 10^3 to 10^4 infection units of HIV was added and cultured for 4 days. Then, a part of the cultured fluid was coated onto a slide glass and immobilized with acetone, after which development of virus antigen was observed by indirect fluorescent antibody method.
As the primary antibody of the fluorescent antibody method, a serum of AIDS patient was used. As its secondary antibody, FITC-labelled […] was used.

[2] = tested on: cytomegalovirus (A0169 strain); experiment: Anti-cytomegalovirus activity: plaque formation in human fetal fibroblasts; format: cell-based; details: Human betaherpesvirus 5, Fibroblast, 240 h, 100 PFU, 37° C., 10 days
Description: Anti-cytomegalovirus activity was determined in the following manner. Thus, a 35 mm.phi. dish containing a single layer of human fetal fibroblasts was infected with 100 PFU (plaque forming units) of cytomegalovirus (A0169 strain). After adsorption for one hour, a medium (0.5% agarose, 2% fetal calf serum) containing a varied concentration of the compound of this invention was superposed thereon, and the whole was cultured at 37° C. for 10 days in 5% (v/v) carbon dioxide incubator, after which the formation of plaque was measured. The results are shown in Table 3 in terms of 50% inhibitory value (IC50).

SMILES | Development of virus antigen (%) ([1]; 3 μg/ml) | Development of virus antigen (%) ([1]; 10 μg/ml) | Development of virus antigen (%) ([1]; 100 μg/ml) | IC50 [2]
Nc1ncnc2c1ncn2[C@H]1C[C@@H](CO)O1 [Compound No. 1] | 0.1% | < 0.1% | < 0.1% | 
[N-]=[N+]=NC[C@H]1[C@H](n2cnc3c(N)ncnc32)O[C@@H]1CO [Compound No. 2] | 15% | 10% | < 0.1% | 
Nc1ncnc2c1ncn2[C@@H]1O[C@H](CO)[C@@H]1O [Compound No. 3] | 1% | 0.1% | < 0.1% | 
C=C1[C@H](n2cnc3c(N)ncnc32)O[C@@H]1CO [Compound No. 4] | 10% | 3% | < 0.1% | 
CCCCC(=O)OC[C@H]1O[C@@H](n2cnc3c(N)ncnc32)[C@@H]1CO [Compound No. 8] | 5% | 3% | < 0.1% | 
CCCCCCCCCCCCCCCC(=O)OC[C@H]1O[C@@H](n2cnc3c(N)ncnc32)[C@@H]1CO [Compound No. 9] | 7% | 3% | < 0.1% | 1.7 µg/mL (≈ 3.47 µM)
Nc1ncnc2c1ncn2[C@@H]1O[C@H](CO)[C@H]1F [Compound No. 10] | > 90% | 50% | < 0.1% | 
[N-]=[N+]=N[C@H]1[C@H](n2cnc3c(N)ncnc32)O[C@@H]1CO [Compound No. 11] | > 90% | 75% | < 0.1% | 
O=c1[nH]cnc2c1ncn2[C@H]1C[C@@H](CO)O1 [Compound No. 13] | < 0.1% | < 0.1% | < 0.1% | 
CCCCC(=O)OC[C@H]1O[C@@H](n2cnc3c(=O)[nH]c(N)nc32)[C@@H]1CO [Compound No. 14] |  |  |  | > 5 µg/mL
CCCCC(=O)OC[C@H]1O[C@@H](n2cnc3c(N)nc(N)nc32)[C@@H]1CO [Compound No. 15] |  |  |  | > 5 µg/mL
Nc1ncnc2c1ncn2[C@@H]1O[C@H](CO)[C@H]1N [Compound No. 16] | 17% | 6% | < 0.1% | 
O=c1[nH]cnc2c1ncn2[C@@H]1O[C@H](CO)[C@H]1COS(=O)(=O)O [Compound No. 17] | 60% | 10% | < 0.1% | 
